Experiments:
Format in all cases: in vivo
corn (Zea mays) = test: Test A preemergence; settings: Zea mays, pre-emergence, 240 h, 0 to 100 scale (0 no effect, 100 complete control)
Summary of the method: (§1)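 Each rating is a visual injury score from 0 to 100 given about 10 d after treatment, judged against untreated controls kept alongside in the greenhouse. In loam soil–sand blend, seeds got a preemergence directed soil spray, while postemergence plants were 2 to 10 cm tall at spraying.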

[1] = test system: morningglory (Ipomoea spp.); test: Test A preemergence; settings: Ipomoea, pre-emergence, 240 h, 0 to 100 scale (0 no effect, 100 complete control), read-out: Plant response rating, Morningglory
Summary of the method: as §1

[2] = test system: crabgrass, large (Digitaria sanguinalis); test: Test A preemergence; settings: Digitaria sanguinalis, pre-emergence, 240 h, 0 to 100 scale (0 no effect, 100 complete control), read-out: Plant response rating, Crabgrass, Large
Summary of the method: as §1

[3] = test system: velvetleaf (Abutilon theophrasti); test: Test A preemergence; settings: Abutilon theophrasti, pre-emergence, 240 h, 0 to 100 scale (0 no effect, 100 complete control), read-out: Plant response rating, Velvetleaf
Summary of the method: as §1

[4] = test system: wheat (Triticum aestivum); test: Test A preemergence; settings: Triticum aestivum, pre-emergence, 240 h, 0 to 100 scale (0 no effect, 100 complete control), read-out: Plant response rating, Wheat
Summary of the method: as §1

[5] = test system: morningglory (Ipomoea spp.); test: Test A postemergence; settings: Ipomoea, post-emergence, 240 h, Postemergence
Summary of the method: as §1

[6] = test system: crabgrass, large (Digitaria sanguinalis); test: Test A postemergence; settings: Digitaria sanguinalis, post-emergence, 240 h, Postemergence
Summary of the method: as §1

[7] = test system: velvetleaf (Abutilon theophrasti); test: Test A postemergence; settings: Abutilon theophrasti, post-emergence, 240 h, Postemergence
Summary of the method: as §1

O=C1NCC(c2ccccc2)C1C(=O)Nc1ccc(C(F)(F)F)cc1 (stereo not shown) [Compound 1362]
0%: Corn plant response rating (crop injury, 0 = no effect, 100 = complete kill) at 500 g/ha (corn (Zea mays); 500 g ai/ha, preemergence) | Corn plant response rating (crop injury, 0 = no effect, 100 = complete kill) at 125 g/ha (corn (Zea mays); Preemergence, 125 g ai/ha) | pest or weed control at 500 g/ha ([1]; 500 g ai/ha, preemergence) | pest or weed control at 125 g/ha ([1]; Preemergence, 125 g ai/ha) | pest or weed control at 500 g/ha ([2]; 500 g ai/ha, preemergence) | pest or weed control at 125 g/ha ([2]; Preemergence, 125 g ai/ha) | pest or weed control at 500 g/ha ([3]; 500 g ai/ha, preemergence) | pest or weed control at 125 g/ha ([3]; Preemergence, 125 g ai/ha) | plant injury at 500 g/ha ([4]; 500 g ai/ha, preemergence) | plant injury at 125 g/ha ([4]; Preemergence, 125 g ai/ha) | pest or weed control at 125 g/ha ([5]; 125 g ai/ha, visual rating about 10 d after treatment, read-out: Morningglory plant response rating (0 to 100 scale)) | pest or weed control at 500 g/ha ([5]; 500 g ai/ha, visual injury, 0 to 100 scale (0 no effect, 100 complete control), approx. 10 d, read-out: Plant response rating, Morningglory) | pest or weed control at 125 g/ha ([6]; 125 g ai/ha, visual rating about 10 d after treatment, read-out: Crabgrass, Large plant response rating (0 to 100 scale)) | pest or weed control at 500 g/ha ([6]; 500 g ai/ha, visual injury, 0 to 100 scale (0 no effect, 100 complete control), approx. 10 d, read-out: Plant response rating, Crabgrass, Large) | pest or weed control at 125 g/ha ([7]; 125 g ai/ha, visual rating about 10 d after treatment, read-out: Velvetleaf plant response rating (0 to 100 scale)) | pest or weed control at 500 g/ha ([7]; 500 g ai/ha, visual injury, 0 to 100 scale (0 no effect, 100 complete control), approx. 10 d, read-out: Plant response rating, Velvetleaf)
